One experiment has as its system U-251. Briefly: Cytotoxicity against human U251 cells after 48 hrs by SRB assay. The note with it: U-251, 48 h. It counts as functional, cell-based.
Another experiment relates to K562. Briefly: Cytotoxicity against human K-562 cells after 48 hrs by SRB assay. The class given is functional, cell-based. The note with it: K562, 48 h.

For `C=C(C)[C@@H]1CC[C@@]2(C)[C@H]1[C@H]1CC[C@@H]3[C@@]4(C)CC[C@H](OC(=O)/C=C/c5ccc(O)cc5)C(C)(C)[C@@H]4CC[C@@]3(C)[C@]1(C)C[C@@H]2O`, the IC50 in the experiment with U-251 came out at 41 µM.

As to `COc1cccc2c1C(=O)c1c(O)c3c(c(O)c1C2=O)C[C@@](O)(C(=O)CO)C[C@@H]3O[C@H]1C[C@H](N)[C@H](O)[C@H](C)O1` [DOXORUBICIN], the results for the IC50 in the experiment on U-251 and in the experiment with K562 were 0.32 µM and 0.28 µM, respectively.

`C=C(C)[C@@H]1CC[C@@]2(C)[C@H]1[C@H]1CCC3[C@@]4(C)CC[C@H](O)C(C)(C)[C@@H]4CC[C@@]3(C)[C@]1(C)C[C@@H]2O` (stereo not given in full) [CALENDULADIOL]: the half-maximal inhibitory concentration (IC50) in the experiment with U-251 amounted to 48.4 µM; in the experiment with K562 it was 31.4 µM.
